≈ marks a conversion by molar mass, not a printed value. Some results are limits rather than exact numbers.

Common to all, as to format: functional
Experiment [1] concerns Escherichia coli. Put plainly: Antibacterial activity against Escherichia coli 10418 after 18 hrs by Etest method. As to conditions: Escherichia coli, 10418, 18 h.
The test system of experiment [2] is Proteus mirabilis. Put plainly: Antibacterial activity against Proteus mirabilis B2 after 18 hrs by Etest method. As to conditions: B2, 18 h.
In experiment [3] the test system is Proteus mirabilis. Put plainly: Antibacterial activity against Proteus mirabilis M 44 mutant after 18 hrs by Etest method. As to conditions: M 44, 18 h.
For experiment [4], the system named is Proteus mirabilis. Put plainly: Antibacterial activity against Proteus mirabilis M 48 mutant after 18 hrs by Etest method. The following applies: M 48, 18 h.
The test system of experiment [5] is Proteus mirabilis. Put plainly: Antibacterial activity against Proteus mirabilis M 55 mutant after 18 hrs by Etest method. The following applies: M 55, 18 h.
Experiment [6] deals with Proteus mirabilis. Put plainly: Antibacterial activity against Proteus mirabilis NP14 after 18 hrs by Etest method. The following applies: NP14, 18 h.
The test system of experiment [7] is Proteus mirabilis. As to the kind of experiment: Antibacterial activity against Proteus mirabilis M 19 mutant after 18 hrs by Etest method. The following applies: M 19, 18 h.
In experiment [8] the test system is Proteus mirabilis. As to the kind of experiment: Antibacterial activity against Proteus mirabilis M 21 mutant after 18 hrs by Etest method. As to conditions: M 21, 18 h.
Experiment [9] has as its system Proteus mirabilis. Put plainly: Antibacterial activity against Proteus mirabilis M 23 mutant after 18 hrs by Etest method. As to conditions: M 23, 18 h.
Experiment [10] concerns Proteus mirabilis. Put plainly: Antibacterial activity against Proteus mirabilis NP37 after 18 hrs by Etest method. The following applies: NP37, 18 h.
Experiment [11] concerns Proteus mirabilis. As to the kind of experiment: Antibacterial activity against Proteus mirabilis M 29 mutant after 18 hrs by Etest method. As to conditions: M 29, 18 h.
Experiment [12] deals with Proteus mirabilis. Put plainly: Antibacterial activity against Proteus mirabilis M 31 mutant after 18 hrs by Etest method. As to conditions: M 31, 18 h.
Experiment [13] relates to Proteus mirabilis. Put plainly: Antibacterial activity against Proteus mirabilis NP43 after 18 hrs by Etest method. The following applies: NP43, 18 h.
Experiment [14] deals with Proteus mirabilis. Put plainly: Antibacterial activity against Proteus mirabilis M 12 mutant after 18 hrs by Etest method. As to conditions: M 12, 18 h.
The test system of experiment [15] is Proteus mirabilis. As to the kind of experiment: Antibacterial activity against Proteus mirabilis M 17 mutant after 18 hrs by Etest method. As to conditions: M 17, 18 h.
Experiment [16] deals with Proteus mirabilis. As to the kind of experiment: Antibacterial activity against Proteus mirabilis NP55 after 18 hrs by Etest method. The following applies: NP55, 18 h.
Experiment [17] relates to Proteus mirabilis. Put plainly: Antibacterial activity against Proteus mirabilis M 35 mutant after 18 hrs by Etest method. The following applies: M 35, 18 h.
In experiment [18] the test system is Proteus mirabilis. Put plainly: Antibacterial activity against Proteus mirabilis M 40 mutant after 18 hrs by Etest method. As to conditions: M 40, 18 h.
Experiment [19] has as its system Proteus mirabilis. Put plainly: Antibacterial activity against Proteus mirabilis M 42 mutant after 18 hrs by Etest method. The following applies: M 42, 18 h.
Experiment [20] relates to Proteus mirabilis. Put plainly: Antibacterial activity against Proteus mirabilis M 26 mutant after 18 hrs by Etest method. The following applies: M 26, 18 h.
Experiment [21] has as its system Proteus mirabilis. As to the kind of experiment: Effect on catheter blockage in Bladder model inoculated with wild-type Proteus mirabilis B2.
For experiment [22], the system named is Proteus mirabilis. As to the kind of experiment: Effect on catheter blockage in Bladder model inoculated with Proteus mirabilis M 48 mutant.
Experiment [23] concerns Proteus mirabilis. Put plainly: Effect on catheter blockage in Bladder model inoculated with Proteus mirabilis M 55 mutant.
In experiment [24] the test system is Proteus mirabilis. As to the kind of experiment: Effect on viable cells in urine at time of catheter blockage in Bladder model inoculated with wild-type Proteus mirabilis B2.
Experiment [25] deals with Proteus mirabilis. Put plainly: Effect on viable cells in urine at time of catheter blockage in Bladder model inoculated with Proteus mirabilis M 48 mutant.
Experiment [26] deals with Proteus mirabilis. Put plainly: Effect on viable cells in urine at time of catheter blockage in Bladder model inoculated with Proteus mirabilis M 55 mutant.
Experiment [27] concerns Proteus mirabilis. Put plainly: Effect on pH of residual urine at time of catheter blockage in Bladder model inoculated with wild-type Proteus mirabilis B2.
Experiment [28] has as its system Proteus mirabilis. Put plainly: Effect on pH of residual urine at time of catheter blockage in Bladder model inoculated with Proteus mirabilis M 48 mutant.
In experiment [29] the test system is Proteus mirabilis. Put plainly: Effect on pH of residual urine at time of catheter blockage in Bladder model inoculated with Proteus mirabilis M 55 mutant.

For `CC1=C(C(=O)O)N2C(=O)[C@@H](NC(=O)[C@H](N)c3ccccc3)[C@H]2SC1` [CEPHALEXIN ANHYDROUS], the MIC stood at 2 µg/mL (≈ 5.76 µM) in experiment [1]; 6 µg/mL (≈ 17.3 µM) in experiment [2]; 4 µg/mL (≈ 11.5 µM) in [3]; 3 µg/mL (≈ 8.64 µM) in experiment [4]; 4 µg/mL (≈ 11.5 µM) in experiment [5]; 3 µg/mL (≈ 8.64 µM) in [6]. In addition, the minimum inhibitory concentration (MIC) was 4 µg/mL (≈ 11.5 µM) in experiment [7]; 3 µg/mL (≈ 8.64 µM) in experiment [8]; 3 µg/mL (≈ 8.64 µM) in experiment [9]; 4 µg/mL (≈ 11.5 µM) in [10]; 2 µg/mL (≈ 5.76 µM) in experiment [11]; 3 µg/mL (≈ 8.64 µM) in experiment [12]. Also, the minimal inhibitory concentration (MIC) worked out at 4 µg/mL (≈ 11.5 µM) in experiment [13]; 1.5 µg/mL (≈ 4.32 µM) in experiment [14]; 1 µg/mL (≈ 2.88 µM) in [15]; 4 µg/mL (≈ 11.5 µM) in [16]; 3 µg/mL (≈ 8.64 µM) in [17]; 3 µg/mL (≈ 8.64 µM) in experiment [18]. In addition, the MIC amounted to 4 µg/mL (≈ 11.5 µM) in experiment [19] and 3 µg/mL (≈ 8.64 µM) in experiment [20].

Turning to `COc1cc(Cc2cnc(N)nc2N)cc(OC)c1OC` [TRIMETHOPRIM], the minimum inhibitory concentration (MIC) is 0.03 µg/mL (≈ 0.103 µM) in experiment [1]; greater than 32 µg/mL in experiment [2]; greater than 32 µg/mL in experiment [3]; greater than 32 µg/mL in experiment [4]; greater than 32 µg/mL in [5]; greater than 32 µg/mL in [6]. Besides, the minimal inhibitory concentration (MIC) in [7], in [8], in experiment [9], in experiment [10], in experiment [11] and in [12] was greater than 32 µg/mL each time. Also, the MIC in experiment [13] was 0.4 µg/mL (≈ 1.38 µM); in experiment [14] it was 0.19 µg/mL (≈ 0.654 µM); in [15] it was 0.25 µg/mL (≈ 0.861 µM); in experiment [16], greater than 32 µg/mL; in experiment [17], greater than 32 µg/mL; in [18], greater than 32 µg/mL. For the same compound, the minimal inhibitory concentration (MIC) in experiment [19] and in [20] was greater than 32 µg/mL in each case.

In the case of `CC1(C)S[C@@H]2[C@H](NC(=O)[C@H](N)c3ccccc3)C(=O)N2[C@H]1C(=O)O` [AMPICILLIN], the MIC in [1] was 0.5 µg/mL (≈ 1.43 µM); in experiment [2] it was greater than 256 µg/mL; in experiment [3] it was greater than 256 µg/mL; in experiment [4], greater than 256 µg/mL; in [5], greater than 256 µg/mL; in [6], 16 µg/mL (≈ 45.8 µM). For the same compound, the minimal inhibitory concentration (MIC) in [7] is 12 µg/mL (≈ 34.3 µM); in experiment [8], 16 µg/mL (≈ 45.8 µM); in experiment [9], 12 µg/mL (≈ 34.3 µM); in experiment [10] it was greater than 256 µg/mL; in [11], greater than 256 µg/mL; in [12], greater than 256 µg/mL. Besides, the MIC in experiment [13] was 0.4 µg/mL (≈ 1.14 µM); in experiment [14], 0.13 µg/mL (≈ 0.372 µM); in [15], 0.19 µg/mL (≈ 0.544 µM); in experiment [16], greater than 256 µg/mL; in experiment [17], greater than 256 µg/mL; in [18], greater than 256 µg/mL. Besides, the minimum inhibitory concentration (MIC) in experiment [19] and in experiment [20] was greater than 256 µg/mL throughout.

For `Oc1cc(Cl)ccc1Oc1ccc(Cl)cc1Cl` [TRICLOSAN], the minimum inhibitory concentration (MIC) in experiment [1] came out at 0.2 µg/mL (≈ 0.691 µM); in experiment [2], 0.2 µg/mL (≈ 0.691 µM); in experiment [3], 40 µg/mL (≈ 138 µM); in [4], 2 µg/mL (≈ 6.91 µM); in [5], 40 µg/mL (≈ 138 µM); in experiment [6] it was 0.2 µg/mL (≈ 0.691 µM). In addition, the MIC in experiment [7] turned out to be 40 µg/mL (≈ 138 µM); in experiment [8], 5 µg/mL (≈ 17.3 µM); in experiment [9] it was 5 µg/mL (≈ 17.3 µM); in [10], 0.1 µg/mL (≈ 0.345 µM); in experiment [11] it was 10 µg/mL (≈ 34.5 µM); in experiment [12], 5 µg/mL (≈ 17.3 µM). The minimal inhibitory concentration (MIC) in experiment [13] stood at 0.2 µg/mL (≈ 0.691 µM); in experiment [14], 40 µg/mL (≈ 138 µM); in [15], 40 µg/mL (≈ 138 µM); in experiment [16], 0.2 µg/mL (≈ 0.691 µM); in experiment [17], 40 µg/mL (≈ 138 µM); in experiment [18], 40 µg/mL (≈ 138 µM). Besides, the MIC in [19] was found to be 0.8 µg/mL (≈ 2.76 µM); in [20], 20 µg/mL (≈ 69.1 µM). The Time in [21] was greater than 48 h; in experiment [22], greater than 48 h; in experiment [23], 44 h. Also, the figures for the CFU/ml in experiment [24], in experiment [25] and in experiment [26] were 2.07 ×10³ /ml, 5.44 ×10⁴ /ml and 4.2 ×10⁷ /ml, respectively. The pH in [27] was found to be 6.28; in experiment [28], 6.51; in experiment [29], 8.84.

What is called MIC is the lowest concentration that inhibits growth of the organism. A higher MIC goes with a need for much substance.

The values are drawn from ChEMBL document CHEMBL1255267, “Reduced Susceptibility of Proteus mirabilis to triclosan” (2008).
